Laboratory results from PubChem BioAssay AID1963870 (Molecular Pharmacology Branch, DTP, NCI, 2024).
Activity calls are given as the source filed them. Rule for the calls: active = viability on the fitted dose curve at most 10% of control; inactive = the rest.

Test system: 292921-168-R-J2-PDC KRAS tumor spheroid viability
Experiment: Anticancer human tumor 292921-168-R-J2-PDC patient-derived pancreatic carcinoma cell line growth inhibition [KRAS2]
Details: spheroids with HUVEC and MSC; for IC50: curve of first compound; for viability, T/C: stronger effect = lower value
Method in brief: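 Combination screen of spheroid viability in tumor-cell co-cultures with endothelial (HUVEC) and mesenchymal stem cell stroma. Each agent was tested in half-log dilutions, topping at clinical Cmax or at 10 microM without a known Cmax.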

[1] = second compound 0.1 µM, first compound 0.0316 µM
[2] = second compound 0.316 µM, first compound 0.0316 µM
[3] = second compound 1 µM, first compound 0.0316 µM
[4] = second compound 3.16 µM, first compound 0.0316 µM
[5] = second compound 10 µM, first compound 0.0316 µM
[6] = second compound 0.1 µM, first compound 0.1 µM
[7] = second compound 0.1 µM, first compound 0.316 µM
[8] = second compound 0.1 µM, first compound 1 µM
[9] = second compound 0.1 µM, first compound 3.16 µM
[10] = second compound 0.1 µM, first compound 10 µM
[11] = second compound 0.316 µM, first compound 0.1 µM
[12] = second compound 0.316 µM, first compound 0.316 µM
[13] = second compound 0.316 µM, first compound 1 µM
[14] = second compound 0.316 µM, first compound 3.16 µM
[15] = second compound 0.316 µM, first compound 10 µM
[16] = second compound 1 µM, first compound 0.1 µM
[17] = second compound 1 µM, first compound 0.316 µM
[18] = second compound 1 µM, first compound 1 µM
[19] = second compound 1 µM, first compound 3.16 µM
[20] = second compound 1 µM, first compound 10 µM
[21] = second compound 3.16 µM, first compound 0.1 µM
[22] = second compound 3.16 µM, first compound 0.316 µM
[23] = second compound 3.16 µM, first compound 1 µM
[24] = second compound 3.16 µM, first compound 3.16 µM
[25] = second compound 3.16 µM, first compound 10 µM
[26] = second compound 10 µM, first compound 0.1 µM
[27] = second compound 10 µM, first compound 0.316 µM
[28] = second compound 10 µM, first compound 1 µM
[29] = second compound 10 µM, first compound 3.16 µM
[30] = second compound 10 µM, first compound 10 µM
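Throughout, for IC50: drug exposure lasted seven days after spheroids formed for three days.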
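Throughout, for viability, T/C: drug exposure lasted seven days after spheroids formed for three days; percent of DMSO vehicle control viability which is 100%.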

CC(=O)Nc1cccc(-n2c(=O)n(C3CC3)c(=O)c3c(Nc4ccc(I)cc4F)n(C)c(=O)c(C)c32)c1 + CC1OCC2(CCN(c3cnc(Sc4ccnc(N)c4Cl)c(N)n3)CC2)C1N
inactive: viability, T/C (second compound 0.1 µM, first compound 0.0001 µM) 48.8% | viability, T/C (second compound 0.1 µM, first compound 0.000316 µM) 28.9% | viability, T/C (second compound 0.1 µM, first compound 0.001 µM) 18.2% | viability, T/C (second compound 0.1 µM, first compound 0.00316 µM) 14.6% | viability, T/C (second compound 0.1 µM, first compound 0.01 µM) 10.5% | viability, T/C (second compound 0.316 µM, first compound 0.0001 µM) 35.4% | viability, T/C (second compound 0.316 µM, first compound 0.000316 µM) 27.8% | viability, T/C (second compound 0.316 µM, first compound 0.001 µM) 15.6% | viability, T/C (second compound 0.316 µM, first compound 0.00316 µM) 11.9% | viability, T/C (second compound 1 µM, first compound 0.0001 µM) 30.1% | viability, T/C (second compound 1 µM, first compound 0.000316 µM) 17.7% | viability, T/C (second compound 1 µM, first compound 0.001 µM) 13.1% | viability, T/C (second compound 3.16 µM, first compound 0.0001 µM) 22.9% | viability, T/C (second compound 3.16 µM, first compound 0.000316 µM) 15.7% | viability, T/C (second compound 3.16 µM, first compound 0.001 µM) 11.9% | viability, T/C (second compound 10 µM, first compound 0.0001 µM) 18.3% | viability, T/C (second compound 10 µM, first compound 0.000316 µM) 14.1%
active: viability, T/C [1] 8.15% | viability, T/C (second compound 0.316 µM, first compound 0.01 µM) 9.03% | viability, T/C [2] 7.3% | viability, T/C (second compound 1 µM, first compound 0.00316 µM) 9.44% | viability, T/C (second compound 1 µM, first compound 0.01 µM) 7.15% | viability, T/C [3] 6.35% | viability, T/C (second compound 3.16 µM, first compound 0.00316 µM) 8.12% | viability, T/C (second compound 3.16 µM, first compound 0.01 µM) 7.15% | viability, T/C [4] 5.35% | viability, T/C (second compound 10 µM, first compound 0.001 µM) 9.59% | viability, T/C (second compound 10 µM, first compound 0.00316 µM) 7.02% | viability, T/C (second compound 10 µM, first compound 0.01 µM) 5.62% | viability, T/C [5] 4.49%
< 0.1 nM: IC50 (second compound 0.1 µM) | IC50 (second compound 0.316 µM) | IC50 (second compound 1 µM) | IC50 (second compound 3.16 µM) | IC50 (second compound 10 µM)

COC(=O)c1ccc2c(C(=Nc3ccc(N(C)C(=O)CN4CCN(C)CC4)cc3)c3ccccc3)c(O)[nH]c2c1 + CC1OCC2(CCN(c3cnc(Sc4ccnc(N)c4Cl)c(N)n3)CC2)C1N
inactive: viability, T/C [1] 71.4% | viability, T/C [6] 57.7% | viability, T/C [7] 48.3% | viability, T/C [8] 24.8% | viability, T/C [9] 12.3% | viability, T/C [2] 76.8% | viability, T/C [11] 63.1% | viability, T/C [12] 46.1% | viability, T/C [13] 26.6% | viability, T/C [14] 9.27% | viability, T/C [3] 48% | viability, T/C [16] 44.3% | viability, T/C [17] 37.6% | viability, T/C [18] 19.3% | viability, T/C [4] 60% | viability, T/C [21] 51.8% | viability, T/C [22] 34.5% | viability, T/C [23] 17.9% | viability, T/C [5] 58.2% | viability, T/C [26] 50.3% | viability, T/C [27] 34.6% | viability, T/C [28] 17.4%
active: viability, T/C [10] 0.41% | viability, T/C [15] 0.34% | viability, T/C [19] 10% | viability, T/C [20] 0.37% | viability, T/C [24] 9.11% | viability, T/C [25] 0.37% | viability, T/C [29] 1.12% | viability, T/C [30] 0.57%
< 31.6 nM: IC50 (second compound 1 µM)
241 nM: IC50 (second compound 0.316 µM)
105 nM: IC50 (second compound 3.16 µM) | IC50 (second compound 10 µM)
217 nM: IC50 (second compound 0.1 µM)

COc1cc(Nc2ncc3c(n2)-c2ccc(Cl)cc2C(c2c(F)cccc2OC)=NC3)ccc1C(=O)O + CC1OCC2(CCN(c3cnc(Sc4ccnc(N)c4Cl)c(N)n3)CC2)C1N
< 31.6 nM: IC50 (second compound 0.1 µM) | IC50 (second compound 0.316 µM) | IC50 (second compound 1 µM) | IC50 (second compound 3.16 µM) | IC50 (second compound 10 µM)
inactive: viability, T/C [1] 22.8% | viability, T/C [6] 21.9% | viability, T/C [7] 22.8% | viability, T/C [8] 22.3% | viability, T/C [9] 17.3% | viability, T/C [10] 14.1% | viability, T/C [2] 21.1% | viability, T/C [11] 18.9% | viability, T/C [12] 22.8% | viability, T/C [13] 19.9% | viability, T/C [14] 16.8% | viability, T/C [15] 10.6% | viability, T/C [3] 18.3% | viability, T/C [16] 15.5% | viability, T/C [17] 18.5% | viability, T/C [18] 15.5% | viability, T/C [19] 13.6% | viability, T/C [20] 10.8% | viability, T/C [4] 18.1% | viability, T/C [21] 16.4% | viability, T/C [22] 16.9% | viability, T/C [23] 14.9% | viability, T/C [24] 12.8% | viability, T/C [25] 10.2% | viability, T/C [5] 16% | viability, T/C [26] 16.7% | viability, T/C [27] 16.1% | viability, T/C [28] 15.7% | viability, T/C [29] 14% | viability, T/C [30] 10.3%

COc1cc2nccc(Oc3ccc(NC(=O)C4(C(=O)Nc5ccc(F)cc5)CC4)cc3)c2cc1OC + CC1OCC2(CCN(c3cnc(Sc4ccnc(N)c4Cl)c(N)n3)CC2)C1N
1610 nM: IC50 (second compound 0.1 µM)
inactive: viability, T/C [1] 81% | viability, T/C [6] 82.6% | viability, T/C [7] 72% | viability, T/C [8] 65.9% | viability, T/C [9] 28.9% | viability, T/C [10] 19% | viability, T/C [2] 60.9% | viability, T/C [11] 61.4% | viability, T/C [12] 54.6% | viability, T/C [13] 45.1% | viability, T/C [14] 25.6% | viability, T/C [15] 17.1% | viability, T/C [3] 42.2% | viability, T/C [16] 45.7% | viability, T/C [17] 26.1% | viability, T/C [18] 33% | viability, T/C [19] 22.5% | viability, T/C [20] 13% | viability, T/C [4] 35.4% | viability, T/C [21] 33.5% | viability, T/C [22] 35.5% | viability, T/C [23] 26.8% | viability, T/C [24] 17.8% | viability, T/C [25] 12% | viability, T/C [5] 31.7% | viability, T/C [26] 30.2% | viability, T/C [27] 31.7% | viability, T/C [28] 24.9% | viability, T/C [29] 14.3%
< 31.6 nM: IC50 (second compound 1 µM) | IC50 (second compound 3.16 µM) | IC50 (second compound 10 µM)
569 nM: IC50 (second compound 0.316 µM)
active: viability, T/C [30] 9.5%

O=C(c1cc(Cc2n[nH]c(=O)c3ccccc23)ccc1F)N1CCN(C(=O)C2CC2)CC1 + CC1OCC2(CCN(c3cnc(Sc4ccnc(N)c4Cl)c(N)n3)CC2)C1N
7220 nM: IC50 (second compound 0.1 µM)
inactive: viability, T/C [1] 90.5% | viability, T/C [6] 82.3% | viability, T/C [7] 81.2% | viability, T/C [8] 90.5% | viability, T/C [9] 74.3% | viability, T/C [10] 40.5% | viability, T/C [2] 76.5% | viability, T/C [11] 63.6% | viability, T/C [12] 63.8% | viability, T/C [13] 78% | viability, T/C [14] 62.5% | viability, T/C [15] 34.6% | viability, T/C [3] 138% | viability, T/C [16] 120% | viability, T/C [17] 113% | viability, T/C [18] 120% | viability, T/C [19] 83.9% | viability, T/C [20] 45.1% | viability, T/C [4] 48% | viability, T/C [21] 41.3% | viability, T/C [22] 50.7% | viability, T/C [23] 45.4% | viability, T/C [24] 39.7% | viability, T/C [25] 30.6% | viability, T/C [5] 50.8% | viability, T/C [26] 44.6% | outcome [27] | viability, T/C [28] 38.6% | viability, T/C [29] 34.4% | viability, T/C [30] 27.6%
< 31.6 nM: IC50 (second compound 3.16 µM) | IC50 (second compound 10 µM)
8780 nM: IC50 (second compound 1 µM)
5520 nM: IC50 (second compound 0.316 µM)
